Reference: patent US9926275B2 (priority 2013, dated 2018)

Columns and labels:
CB1 receptor [1] = molecular target: T1, CB1 receptor (Homo sapiens, UniProt P21554); assay: DiscoveRx HitHunter cAMP XS+ assay in cAMP Hunter cell line, allosteric modulation of CP55,940 response; format: cell-based
Experimental: Once it was established that the cells were healthy and growing normally, cells were passaged from flasks using cell dissociation reagent buffer and seeded into white walled clear bottom 384-well microplates for compound profiling. For profiling, cells were seeded at a density of 10000 cells per well in a total volume of 20 μL and were allowed to adhere and recover overnight prior to compound addition. Cells were treated the following day using the protocols shown below. cAMP modulation was determined using the DiscoveRx HitHunter cAMP XS+ assay.
Media was aspirated from cells and replaced with 10 μL 1:1 HBSS/Hepes: cAMP XS+ Ab reagent. Agonist (CP55,940) dose curves were performed to determine the EC20 value for the testing with the compounds of the present technology. 5 μL of 4× agonist was added to each well with an equal concentration of vehicle present. EC20 agonist concentration was determined directly from agonist dose curve.
(§1) For allosteric determination, cells were preincubated with compound followed by agonist challenge at the EC20 concentration of the agonist. 5 μL of 4× compound was added to cells and incubated at 37° C. for 30 minutes. 5 μL of 4× EC20 agonist was added to cells and incubated at 37° C. for 30 minutes.
Signal Detection: After appropriate compound incubation, assay signal was generated through incubation with 20 μL cAMP XS+ED/CL lysis cocktail for one hour followed by incubation with 20 μL cAMP XS+EA reagent for three hours at room temperature. Microplates were read following signal generation with a PerkinElmer Envision™ instrument for chemiluminescent signal detection.
(§2) Data Analysis: Dose curves were plotted using GraphPad Prism or Activity Base. The percentage activity is calculated using the following formula: % Activity=100%×(1−(mean RLU of test sample−mean RLU of MAX control)/(mean RLU of vehicle control [EC20 for PAM]−mean RLU of MAXcontrol).
(§3) Agonist (CP55,940) dose curves were performed for the CNR1 PathHunter and cAMP Hunter cell lines. […] The cAMP assay was performed in the presence of 20 μM forskolin (EC80).
(§4) In Vitro Evaluation: The in vitro evaluation of the covalent allosteric modulators was performed using as described previously.

CB1 receptor [2] = molecular target: T1, CB1 receptor; assay: β-arrestin recruitment in CNR1 PathHunter cell line, allosteric modulation of CP55,940 response; format: cell-based
Experimental: as §1, §2, §3, §4

[3] = Table 1, preincubation with compound, then CP55,940 challenge, 20 μM forskolin
[4] = Table 1, preincubation with compound, then CP55,940 challenge, 20 μM forskolin, read-out: cAMP EC50
[5] = Table 1, CP55,940 as agonist, read-out: β-arrestin EC50

T1 sequence (P21554 whole entry): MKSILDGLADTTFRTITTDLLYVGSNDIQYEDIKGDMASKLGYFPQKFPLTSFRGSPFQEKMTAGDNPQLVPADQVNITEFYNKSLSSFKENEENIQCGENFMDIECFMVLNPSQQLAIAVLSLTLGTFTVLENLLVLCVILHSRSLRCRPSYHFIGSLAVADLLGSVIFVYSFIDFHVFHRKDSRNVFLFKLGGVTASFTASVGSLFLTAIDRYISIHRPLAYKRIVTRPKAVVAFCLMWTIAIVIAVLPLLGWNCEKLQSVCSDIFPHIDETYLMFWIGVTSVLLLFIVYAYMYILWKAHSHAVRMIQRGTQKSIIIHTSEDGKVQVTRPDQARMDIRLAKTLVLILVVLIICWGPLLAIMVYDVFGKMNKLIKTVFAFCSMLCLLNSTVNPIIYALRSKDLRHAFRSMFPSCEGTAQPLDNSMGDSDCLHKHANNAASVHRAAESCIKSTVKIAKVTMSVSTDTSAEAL

Structure (SMILES)	cAMP % inhibition (CB1 receptor [1]; [3])	EC50 (CB1 receptor [1]; [4])	β-arrestin % inhibition (CB1 receptor [2]; Table 1, CP55,940 as agonist)	EC50 (CB1 receptor [2]; [5])	EC50 (CB1 receptor [1]; Table 2, covalent allosteric modulators, read-out: cAMP activity EC50 (nm))	Emax (CB1 receptor [1]; read-out: cAMP activity ECMax (%))	EC50 (CB1 receptor [2]; Table 2, covalent allosteric modulators, read-out: β-arrestin activity EC50 (nm))	Emax (CB1 receptor [2]; read-out: β-arrestin activity EMax (%))
COc1ccc(NC(=O)Nc2cccc(-c3cccc(N4CCCC4)n3)c2)cc1 [Compound 10h, 1-(4-Methoxyphenyl)-3-(3-(6-(pyrrolidin-1-yl)pyridin-2-yl)phenyl)urea]	97%	1230 nM	98%	99 nM	–	–	–	–
O=C(Nc1cccc(-c2cccc(N3CCCC3)n2)c1)Nc1ccc(Cl)cc1CCCCOC1CCCCO1 (stereo not drawn) [Compound 23a, 1-(4-Chloro-2-(4-((tetrahydro-2H-pyran-2-yl)oxy)butyl)phenyl)-3-(3-(6-(pyrrolidin-1-yl)pyridin-2-yl)phenyl)urea]	41%	820 nM	117%	1090 nM	–	–	–	–
O=C(Nc1cccc(-c2cccc(N3CCCC3)n2)c1)Nc1ccc2ccccc2c1 [Compound 10x, 1-(Naphthalen-2-yl)-3-(3-(6-(pyrrolidin-1-yl)pyridin-2-yl)phenyl)urea]	68%	1830 nM	119%	1910 nM	–	–	–	–
Cc1cccc(NC(=O)Nc2cccc(-c3cccc(N4CCCC4)n3)c2)c1 [Compound 10o, 1-(3-(6-(Pyrrolidin-1-yl)pyridin-2-yl)phenyl)-3-(m-tolyl)urea]	65%	483 nM	125%	734 nM	–	–	–	–
Clc1ccc(-c2nnc(Nc3cccc(-c4cccc(N5CCCC5)n4)c3)o2)cc1 [Compound 45, 5-(4-Chlorophenyl)-N-(3-(6-(pyrrolidin-1-yl)pyridin-2-yl)phenyl)-1,3,4-oxadiazol-2-amine]	20%	4050 nM	70%	3210 nM	–	–	–	–
COC(=O)c1ccccc1NC(=O)Nc1cccc(-c2cccc(N3CCCC3)n2)c1 [Compound 15, Methyl 2-(3-(3-(6-(pyrrolidin-1-yl)pyridin-2-yl)phenyl)ureido)benzoate]	0.6%	> 10000 nM	24%	8520 nM	–	–	–	–
O=C(Nc1cccc(-c2cccc(N3CCCC3)n2)c1)Nc1ccc(Cl)cc1C#CCCO [Compound 22a, 1-(4-Chloro-2-(4-hydroxybut-1-yn-1-yl)phenyl)-3-(3-(6-(pyrrolidin-1-yl)pyridin-2-yl)phenyl)urea]	49%	6490 nM	83%	4890 nM	–	–	–	–
O=C(Nc1ccc(N=C=S)cc1)Nc1cccc(-c2cccc(N3CCCC3)n2)c1 [GAT332]	–	–	–	–	119 nM	78.9%	24 nM	106%
O=C(Nc1cccc(-c2cccc(N3CCCC3)n2)c1)Nc1ccc(Cl)c(CCCCO)c1 [Compound 24b, 1-(4-Chloro-3-(4-hydroxybutyl)phenyl)-3-(3-(6-(pyrrolidin-1-yl)pyridin-2-yl)phenyl)urea]	111%	1420 nM	125%	1350 nM	–	–	–	–
O=C(Nc1cccc(-c2cccc(N3CCCC3)n2)c1)Nc1ccc(Cl)cc1C#CCCOC1CCCCO1 (stereo not drawn) [Compound 21a, 1-(4-Chloro-2-(4-((tetrahydro-2H-pyran-2-yl)oxy)but-1-yn-1-yl)phenyl)-3-(3-(6-(pyrrolidin-1-yl)pyridin-2-yl)phenyl)urea]	9%	> 10000 nM	73%	3400 nM	–	–	–	–
O=C(Nc1cccc(-c2cccc(N3CCCC3)n2)c1)Nc1ccccc1CO [Compound 17, 1-(2-(Hydroxymethyl)phenyl)-3-(3-(6-(pyrrolidin-1-yl)pyridin-2-yl)phenyl)urea]	33%	1140 nM	106%	672 nM	–	–	–	–
O=C(Nc1cccc(-c2cccc(N3CCCC3)n2)c1)Nc1ccccc1CCCCOC1CCCCO1 (stereo not drawn) [Compound 23c, 1-(3-(6-(Pyrrolidin-1-yl)pyridin-2-yl)phenyl)-3-(2-(4-((tetrahydro-2H-pyran-2-yl)oxy)butyl)phenyl)urea]	20%	> 10000 nM	69%	6190 nM	–	–	–	–
